In ChEMBL document CHEMBL5223127, “Fragment-based discovery of novel phenyltriazolyl derivatives as allosteric type-I1/2 ALK inhibitors with promising antitumor effects” (Bioorg Med Chem Lett, 2022):

What follows are compounds tested against Epidermal growth factor receptor (Homo sapiens, UniProt P00533) (assay: Inhibition of EGFR (unknown origin)). Settings: not given.
Work on `O=C(Nc1cccc(-n2cc(CNc3ccc(N4CC(O)C4)c(C(=O)N4CCCCC4)c3)nn2)c1)c1cc(F)cc(F)c1` yielded an IC50 greater than 1000 nM. `O=C(Nc1cccc(-n2cc(CNc3ccc(N4CCC(O)CC4)c(C(=O)N4CCCCC4)c3)nn2)c1)c1cc(F)cc(F)c1` showed an IC50 greater than 1000 nM. `O=C(Nc1cccc(-n2cc(CNc3ccc(N4CCC(O)CC4)c(C(=O)N4CCCC4)c3)nn2)c1)c1cc(F)cc(F)c1` showed an IC50 greater than 1000 nM.

These compounds were tested against Hepatocyte growth factor receptor (Homo sapiens, UniProt P08581) (assay: Inhibition of c-MET (unknown origin)). Settings: not given.
Hepatocyte growth factor receptor, sequence (P08581 whole entry): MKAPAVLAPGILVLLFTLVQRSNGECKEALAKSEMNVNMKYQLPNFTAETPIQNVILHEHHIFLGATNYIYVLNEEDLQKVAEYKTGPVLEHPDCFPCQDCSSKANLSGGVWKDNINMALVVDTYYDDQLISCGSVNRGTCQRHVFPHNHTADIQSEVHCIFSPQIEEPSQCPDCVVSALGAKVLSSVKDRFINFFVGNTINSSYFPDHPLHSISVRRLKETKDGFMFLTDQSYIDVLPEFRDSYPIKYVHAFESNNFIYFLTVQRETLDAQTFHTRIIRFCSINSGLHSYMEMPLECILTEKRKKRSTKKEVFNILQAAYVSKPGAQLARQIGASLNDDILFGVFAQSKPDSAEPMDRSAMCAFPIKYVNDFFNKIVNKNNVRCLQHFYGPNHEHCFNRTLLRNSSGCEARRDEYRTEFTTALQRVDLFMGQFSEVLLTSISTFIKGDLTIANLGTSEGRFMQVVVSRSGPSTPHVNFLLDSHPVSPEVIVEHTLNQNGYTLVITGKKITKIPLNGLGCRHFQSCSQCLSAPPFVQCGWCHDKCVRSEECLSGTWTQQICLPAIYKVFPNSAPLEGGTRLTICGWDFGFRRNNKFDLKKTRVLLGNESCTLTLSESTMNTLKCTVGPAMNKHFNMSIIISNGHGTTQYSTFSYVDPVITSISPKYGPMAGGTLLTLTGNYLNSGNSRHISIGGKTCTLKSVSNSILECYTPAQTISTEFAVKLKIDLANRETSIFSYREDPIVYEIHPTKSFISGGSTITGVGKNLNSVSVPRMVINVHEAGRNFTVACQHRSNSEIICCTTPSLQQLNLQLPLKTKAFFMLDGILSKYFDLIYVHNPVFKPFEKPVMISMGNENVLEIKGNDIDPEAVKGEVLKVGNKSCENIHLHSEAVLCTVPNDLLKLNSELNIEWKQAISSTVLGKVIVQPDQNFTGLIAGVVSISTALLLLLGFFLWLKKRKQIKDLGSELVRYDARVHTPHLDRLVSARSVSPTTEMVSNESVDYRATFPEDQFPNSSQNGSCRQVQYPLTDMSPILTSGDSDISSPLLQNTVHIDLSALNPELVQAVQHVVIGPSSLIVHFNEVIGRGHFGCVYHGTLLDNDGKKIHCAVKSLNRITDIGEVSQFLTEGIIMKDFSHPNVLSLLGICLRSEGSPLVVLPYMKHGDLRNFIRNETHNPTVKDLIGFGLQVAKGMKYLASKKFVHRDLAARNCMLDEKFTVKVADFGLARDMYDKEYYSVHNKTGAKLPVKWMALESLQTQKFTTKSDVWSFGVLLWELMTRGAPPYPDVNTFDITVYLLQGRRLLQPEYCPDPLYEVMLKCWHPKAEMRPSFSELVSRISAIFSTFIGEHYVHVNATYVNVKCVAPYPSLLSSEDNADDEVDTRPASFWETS
`O=C(Nc1cccc(-n2cc(CNc3ccc(N4CC(O)C4)c(C(=O)N4CCCCC4)c3)nn2)c1)c1cc(F)cc(F)c1` was tested, and the IC50 was 796 nM. For `O=C(Nc1cccc(-n2cc(CNc3ccc(N4CCC(O)CC4)c(C(=O)N4CCCCC4)c3)nn2)c1)c1cc(F)cc(F)c1`, the IC50 was greater than 1000 nM. In the case of `O=C(Nc1cccc(-n2cc(CNc3ccc(N4CCC(O)CC4)c(C(=O)N4CCCC4)c3)nn2)c1)c1cc(F)cc(F)c1`, the IC50 is reported as greater than 1000 nM.

These compounds were tested on NCI-H2228 (assay: Induction of apoptosis in human NCI-H2228 cells assessed as nuclear fragmentation incubated for 24 hrs by Hoechst 33342 staining based fluorescence microscopy assay). Settings: dose 25-100 nM.
Format: functional, cell-based
For `O=C(Nc1cccc(-n2cc(CNc3ccc(N4CCC(O)CC4)c(C(=O)N4CCCC4)c3)nn2)c1)c1cc(F)cc(F)c1`, the Activity was “Dose-Dependent Effect”.

The compounds below were run on NCI-H2228 (assay: Antimigratory activity against human NCI-H2228 cells incubated for 48 hrs by wound healing assay). Settings: dose 12.5-50 nM.
Format: functional, cell-based
`O=C(Nc1cccc(-n2cc(CNc3ccc(N4CCC(O)CC4)c(C(=O)N4CCCC4)c3)nn2)c1)c1cc(F)cc(F)c1` was tested, and the Activity was “Dose-Dependent Effect”.

The compounds below were run against ALK tyrosine kinase receptor (Homo sapiens, UniProt Q9UM73) (assay: Inhibition of wild type ALK (unknown origin)). Settings: not given.
ALK tyrosine kinase receptor (Homo sapiens, UniProt Q9UM73), sequence (Q9UM73 whole entry): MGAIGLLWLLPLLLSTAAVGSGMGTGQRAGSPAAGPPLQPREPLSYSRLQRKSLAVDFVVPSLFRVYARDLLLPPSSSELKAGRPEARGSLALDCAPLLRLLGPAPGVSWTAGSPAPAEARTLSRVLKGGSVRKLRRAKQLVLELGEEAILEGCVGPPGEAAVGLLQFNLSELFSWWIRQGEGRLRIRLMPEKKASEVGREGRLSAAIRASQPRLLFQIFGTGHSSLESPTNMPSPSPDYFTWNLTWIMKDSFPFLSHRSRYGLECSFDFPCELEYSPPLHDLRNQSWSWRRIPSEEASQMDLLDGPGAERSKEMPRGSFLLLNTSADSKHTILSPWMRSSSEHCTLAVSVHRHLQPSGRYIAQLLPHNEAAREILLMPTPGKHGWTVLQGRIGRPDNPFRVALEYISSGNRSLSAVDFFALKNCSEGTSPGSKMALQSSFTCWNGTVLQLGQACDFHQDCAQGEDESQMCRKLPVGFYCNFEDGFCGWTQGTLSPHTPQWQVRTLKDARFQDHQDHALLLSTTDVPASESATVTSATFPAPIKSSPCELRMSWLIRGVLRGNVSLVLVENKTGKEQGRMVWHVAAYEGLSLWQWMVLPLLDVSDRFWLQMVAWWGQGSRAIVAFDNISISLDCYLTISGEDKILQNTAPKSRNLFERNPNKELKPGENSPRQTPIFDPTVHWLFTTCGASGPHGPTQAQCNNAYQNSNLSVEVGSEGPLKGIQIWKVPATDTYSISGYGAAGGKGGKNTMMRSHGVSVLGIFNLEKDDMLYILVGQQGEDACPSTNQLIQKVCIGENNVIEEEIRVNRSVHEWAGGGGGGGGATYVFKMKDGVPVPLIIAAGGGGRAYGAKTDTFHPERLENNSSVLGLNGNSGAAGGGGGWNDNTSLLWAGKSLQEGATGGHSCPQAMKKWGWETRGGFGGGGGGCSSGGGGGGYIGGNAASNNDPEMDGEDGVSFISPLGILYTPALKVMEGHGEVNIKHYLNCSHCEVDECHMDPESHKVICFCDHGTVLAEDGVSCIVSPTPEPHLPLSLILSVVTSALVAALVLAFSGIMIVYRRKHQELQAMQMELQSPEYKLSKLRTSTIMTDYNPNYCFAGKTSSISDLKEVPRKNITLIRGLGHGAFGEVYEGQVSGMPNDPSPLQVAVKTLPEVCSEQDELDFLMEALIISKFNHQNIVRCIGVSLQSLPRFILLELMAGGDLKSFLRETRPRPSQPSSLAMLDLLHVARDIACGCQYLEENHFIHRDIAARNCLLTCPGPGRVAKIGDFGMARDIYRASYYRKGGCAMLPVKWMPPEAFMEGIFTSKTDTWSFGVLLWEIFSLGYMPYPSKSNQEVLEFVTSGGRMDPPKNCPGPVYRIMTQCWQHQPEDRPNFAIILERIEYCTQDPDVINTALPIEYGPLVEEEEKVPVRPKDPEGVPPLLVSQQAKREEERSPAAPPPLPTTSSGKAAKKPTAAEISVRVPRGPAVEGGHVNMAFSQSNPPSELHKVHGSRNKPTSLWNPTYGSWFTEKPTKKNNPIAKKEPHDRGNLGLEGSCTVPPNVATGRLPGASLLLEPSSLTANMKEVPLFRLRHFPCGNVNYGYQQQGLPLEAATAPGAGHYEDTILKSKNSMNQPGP
Work on `CNCc1cn(-c2cccc(NC(=O)c3cc(F)cc(F)c3)c2)nn1` yielded an IC50 of 270 nM. `CN1CCN(c2ccc(NCc3cn(-c4cccc(NC(=O)c5cc(F)cc(F)c5)c4)nn3)cc2)CC1` showed an IC50 of 55 nM. `O=C(Nc1cccc(-n2cc(CNc3ccc(N4CC(O)C4)c(C(=O)N4CCCCC4)c3)nn2)c1)c1cc(F)cc(F)c1` showed an IC50 of 5.8 nM. `O=C(Nc1cccc(-n2cc(CNc3ccc(N4CCC(O)CC4)c(C(=O)N4CCCCC4)c3)nn2)c1)c1cc(F)cc(F)c1` was tested, and the IC50 was 8.6 nM. With `O=C(Nc1cccc(-n2cc(CNc3ccc(N4CCC(O)CC4)c(C(=O)N4CCCC4)c3)nn2)c1)c1cc(F)cc(F)c1` the IC50 was 3.7 nM.

What follows are compounds tested on NCI-H2228 (assay: Induction of apoptosis in human NCI-H2228 cells assessed as nuclear contraction incubated for 24 hrs by Hoechst 33342 staining based fluorescence microscopy assay). Settings: dose 25-100 nM.
Format: functional, cell-based
`O=C(Nc1cccc(-n2cc(CNc3ccc(N4CCC(O)CC4)c(C(=O)N4CCCC4)c3)nn2)c1)c1cc(F)cc(F)c1` was tested, and the Activity was “Dose-Dependent Effect”.

What follows are compounds tested on NCI-H2228 (assay: Antiproliferative activity against human NCI-H2228 cells by MTT assay). Settings: not given.
In the case of `CN(C)C(=O)c1cc(NCc2cn(-c3cccc(NC(=O)c4cc(F)cc(F)c4)c3)nn2)ccc1NCCO`, the IC50 is reported as 1790 nM. `CN(C)C(=O)c1cc(NCc2cn(-c3cccc(NC(=O)c4cc(F)cc(F)c4)c3)nn2)ccc1N(C)C` showed an IC50 of 1610 nM. Work on `CC1CCN(c2ccc(NCc3cn(-c4cccc(NC(=O)c5cc(F)cc(F)c5)c4)nn3)cc2C(=O)N(C)C)CC1` yielded an IC50 of 881 nM. For `O=C(Nc1cccc(-n2cc(CNc3ccc(N4CCCCC4)c(C(=O)N4CCOCC4)c3)nn2)c1)c1cc(F)cc(F)c1`, the IC50 was 7520 nM. Compound `CN(C)c1ccc(NCc2cn(-c3cccc(NC(=O)c4cc(F)cc(F)c4)c3)nn2)cc1C(=O)N1CCOCC1` has an IC50 of 7890 nM. For `CC1CCN(c2ccc(NCc3cn(-c4cccc(NC(=O)c5cc(F)cc(F)c5)c4)nn3)cc2C(=O)N2CCCC2)CC1`, the IC50 was 995 nM. For `CN1CCN(c2ccc(NCc3cn(-c4cccc(NC(=O)c5cc(F)cc(F)c5)c4)nn3)cc2C(=O)N(C)C)CC1`, the IC50 was 169 nM. With `O=C(Nc1cccc(-n2cc(CNc3ccc(N4CC(O)C4)c(C(=O)N4CCOCC4)c3)nn2)c1)c1cc(F)cc(F)c1` the IC50 was 1610 nM. For `O=C(Nc1cccc(-n2cc(CNc3ccc(N4CC(O)C4)c(C(=O)N4CCCCC4)c3)nn2)c1)c1cc(F)cc(F)c1`, the IC50 was 193 nM. In the case of `O=C(Nc1cccc(-n2cc(CNc3ccc(N4CCC(O)CC4)c(C(=O)N4CCCCC4)c3)nn2)c1)c1cc(F)cc(F)c1`, the IC50 is reported as 192 nM. For `O=C(Nc1cccc(-n2cc(CNc3ccc(N4CCC(O)CC4)c(C(=O)N4CCCC4)c3)nn2)c1)c1cc(F)cc(F)c1`, the IC50 was 175 nM.

What follows are compounds tested on NCI-H2228 (assay: Inhibition of colony formation in human NCI-H2228 cells incubated for 24 hrs). Settings: dose 0.25-1 µM.
Format: functional, cell-based
`O=C(Nc1cccc(-n2cc(CNc3ccc(N4CCC(O)CC4)c(C(=O)N4CCCC4)c3)nn2)c1)c1cc(F)cc(F)c1` was tested, and the inhibition was “Dose-Dependent Effect”.

What follows are compounds tested on NCI-H2228 (assay: Inhibition of colony formation in human NCI-H2228 cells at 1 uM incubated for 24 hrs). Settings: not given.
Format: functional
Work on `O=C(Nc1cccc(-n2cc(CNc3ccc(N4CCC(O)CC4)c(C(=O)N4CCCC4)c3)nn2)c1)c1cc(F)cc(F)c1` yielded an inhibition at 1 µM of 100%.

Each compound was assayed against ALK tyrosine kinase receptor (Homo sapiens, UniProt Q9UM73, L1196M) (assay: Inhibition of ALK L1196M mutant (unknown origin)). Settings: not given.
ALK tyrosine kinase receptor (Homo sapiens, UniProt Q9UM73, L1196M), sequence (Q9UM73 19-1620 L1196M limits assumed): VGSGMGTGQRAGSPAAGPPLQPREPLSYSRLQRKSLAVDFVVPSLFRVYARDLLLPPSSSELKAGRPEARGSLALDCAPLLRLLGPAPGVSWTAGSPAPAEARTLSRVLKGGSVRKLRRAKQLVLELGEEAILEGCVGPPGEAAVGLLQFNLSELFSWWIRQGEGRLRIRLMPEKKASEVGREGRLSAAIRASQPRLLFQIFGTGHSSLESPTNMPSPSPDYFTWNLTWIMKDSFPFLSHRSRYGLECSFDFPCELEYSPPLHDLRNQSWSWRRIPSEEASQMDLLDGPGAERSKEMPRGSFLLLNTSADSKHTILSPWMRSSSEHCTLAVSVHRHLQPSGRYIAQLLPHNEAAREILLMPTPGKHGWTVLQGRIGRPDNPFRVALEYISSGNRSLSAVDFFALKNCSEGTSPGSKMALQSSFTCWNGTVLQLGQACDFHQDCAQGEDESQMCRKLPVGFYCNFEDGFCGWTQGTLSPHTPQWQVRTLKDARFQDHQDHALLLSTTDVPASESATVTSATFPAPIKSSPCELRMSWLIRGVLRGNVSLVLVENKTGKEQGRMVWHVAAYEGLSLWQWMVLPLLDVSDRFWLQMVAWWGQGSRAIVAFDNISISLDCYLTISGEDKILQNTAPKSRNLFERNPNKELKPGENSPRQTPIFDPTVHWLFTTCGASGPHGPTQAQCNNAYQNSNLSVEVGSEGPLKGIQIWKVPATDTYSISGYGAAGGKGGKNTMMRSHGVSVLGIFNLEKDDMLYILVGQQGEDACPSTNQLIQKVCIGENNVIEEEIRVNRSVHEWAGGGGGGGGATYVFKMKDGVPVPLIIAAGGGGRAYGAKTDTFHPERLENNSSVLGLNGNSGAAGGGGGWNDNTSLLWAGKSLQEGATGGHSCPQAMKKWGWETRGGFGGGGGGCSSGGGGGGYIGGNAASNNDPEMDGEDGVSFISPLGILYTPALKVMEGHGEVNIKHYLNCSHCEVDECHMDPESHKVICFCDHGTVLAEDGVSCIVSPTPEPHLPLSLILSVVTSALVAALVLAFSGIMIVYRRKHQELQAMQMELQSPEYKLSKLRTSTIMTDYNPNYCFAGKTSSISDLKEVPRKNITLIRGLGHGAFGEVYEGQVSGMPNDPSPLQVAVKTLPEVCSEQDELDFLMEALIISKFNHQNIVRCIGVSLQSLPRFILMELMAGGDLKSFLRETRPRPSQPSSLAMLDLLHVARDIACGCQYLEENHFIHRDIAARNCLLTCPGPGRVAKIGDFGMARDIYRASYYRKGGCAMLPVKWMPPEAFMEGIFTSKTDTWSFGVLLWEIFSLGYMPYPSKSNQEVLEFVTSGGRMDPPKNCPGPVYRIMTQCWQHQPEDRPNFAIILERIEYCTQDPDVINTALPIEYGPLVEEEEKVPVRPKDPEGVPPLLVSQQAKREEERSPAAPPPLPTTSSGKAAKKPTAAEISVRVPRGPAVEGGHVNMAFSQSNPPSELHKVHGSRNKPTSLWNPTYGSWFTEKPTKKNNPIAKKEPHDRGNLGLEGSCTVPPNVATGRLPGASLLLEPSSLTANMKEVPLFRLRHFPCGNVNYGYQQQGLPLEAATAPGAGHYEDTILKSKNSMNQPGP
For `O=C(Nc1cccc(-n2cc(CNc3ccc(N4CC(O)C4)c(C(=O)N4CCCCC4)c3)nn2)c1)c1cc(F)cc(F)c1`, the IC50 was 12.9 nM. `O=C(Nc1cccc(-n2cc(CNc3ccc(N4CCC(O)CC4)c(C(=O)N4CCCCC4)c3)nn2)c1)c1cc(F)cc(F)c1` gave an IC50 of 17.6 nM. In the case of `O=C(Nc1cccc(-n2cc(CNc3ccc(N4CCC(O)CC4)c(C(=O)N4CCCC4)c3)nn2)c1)c1cc(F)cc(F)c1`, the IC50 is reported as 6.8 nM.

The compounds below were run on A549 (assay: cells). Settings: Homo sapiens.
Description: Antiproliferative activity against human A549 cells by MTT assay
In the case of `CN(C)C(=O)c1cc(NCc2cn(-c3cccc(NC(=O)c4cc(F)cc(F)c4)c3)nn2)ccc1NCCO`, the IC50 is reported as 7.99 µM. For `CN(C)C(=O)c1cc(NCc2cn(-c3cccc(NC(=O)c4cc(F)cc(F)c4)c3)nn2)ccc1N(C)C`, the IC50 was 4.93 µM. Compound `CC1CCN(c2ccc(NCc3cn(-c4cccc(NC(=O)c5cc(F)cc(F)c5)c4)nn3)cc2C(=O)N(C)C)CC1` has an IC50 of 5.79 µM. `O=C(Nc1cccc(-n2cc(CNc3ccc(N4CCCCC4)c(C(=O)N4CCOCC4)c3)nn2)c1)c1cc(F)cc(F)c1` gave an IC50 greater than 10 µM. Compound `CN(C)c1ccc(NCc2cn(-c3cccc(NC(=O)c4cc(F)cc(F)c4)c3)nn2)cc1C(=O)N1CCOCC1` has an IC50 greater than 10 µM. `CC1CCN(c2ccc(NCc3cn(-c4cccc(NC(=O)c5cc(F)cc(F)c5)c4)nn3)cc2C(=O)N2CCCC2)CC1` was tested, and the IC50 was greater than 10 µM. Compound `CN1CCN(c2ccc(NCc3cn(-c4cccc(NC(=O)c5cc(F)cc(F)c5)c4)nn3)cc2C(=O)N(C)C)CC1` has an IC50 of 3.75 µM. Work on `O=C(Nc1cccc(-n2cc(CNc3ccc(N4CC(O)C4)c(C(=O)N4CCOCC4)c3)nn2)c1)c1cc(F)cc(F)c1` yielded an IC50 greater than 10 µM. `O=C(Nc1cccc(-n2cc(CNc3ccc(N4CC(O)C4)c(C(=O)N4CCCCC4)c3)nn2)c1)c1cc(F)cc(F)c1` was tested, and the IC50 was greater than 10 µM. In the case of `O=C(Nc1cccc(-n2cc(CNc3ccc(N4CCC(O)CC4)c(C(=O)N4CCCCC4)c3)nn2)c1)c1cc(F)cc(F)c1`, the IC50 is reported as greater than 10 µM. With `O=C(Nc1cccc(-n2cc(CNc3ccc(N4CCC(O)CC4)c(C(=O)N4CCCC4)c3)nn2)c1)c1cc(F)cc(F)c1` the IC50 was greater than 10 µM.

Each compound was assayed on KARPAS-299 (assay: Antiproliferative activity against human KARPAS-299 cells by MTT assay). Settings: not given.
For `CN(C)C(=O)c1cc(NCc2cn(-c3cccc(NC(=O)c4cc(F)cc(F)c4)c3)nn2)ccc1NCCO`, the IC50 was 492 nM. Work on `CN(C)C(=O)c1cc(NCc2cn(-c3cccc(NC(=O)c4cc(F)cc(F)c4)c3)nn2)ccc1N(C)C` yielded an IC50 of 356 nM. For `CC1CCN(c2ccc(NCc3cn(-c4cccc(NC(=O)c5cc(F)cc(F)c5)c4)nn3)cc2C(=O)N(C)C)CC1`, the IC50 was 191 nM. `O=C(Nc1cccc(-n2cc(CNc3ccc(N4CCCCC4)c(C(=O)N4CCOCC4)c3)nn2)c1)c1cc(F)cc(F)c1` gave an IC50 of 1910 nM. `CN(C)c1ccc(NCc2cn(-c3cccc(NC(=O)c4cc(F)cc(F)c4)c3)nn2)cc1C(=O)N1CCOCC1` was tested, and the IC50 was 1760 nM. `CC1CCN(c2ccc(NCc3cn(-c4cccc(NC(=O)c5cc(F)cc(F)c5)c4)nn3)cc2C(=O)N2CCCC2)CC1` gave an IC50 of 249 nM. For `CN1CCN(c2ccc(NCc3cn(-c4cccc(NC(=O)c5cc(F)cc(F)c5)c4)nn3)cc2C(=O)N(C)C)CC1`, the IC50 was 55 nM. `O=C(Nc1cccc(-n2cc(CNc3ccc(N4CC(O)C4)c(C(=O)N4CCOCC4)c3)nn2)c1)c1cc(F)cc(F)c1` was tested, and the IC50 was 594 nM. Work on `O=C(Nc1cccc(-n2cc(CNc3ccc(N4CC(O)C4)c(C(=O)N4CCCCC4)c3)nn2)c1)c1cc(F)cc(F)c1` yielded an IC50 of 55 nM. Work on `O=C(Nc1cccc(-n2cc(CNc3ccc(N4CCC(O)CC4)c(C(=O)N4CCCCC4)c3)nn2)c1)c1cc(F)cc(F)c1` yielded an IC50 of 57 nM. Compound `O=C(Nc1cccc(-n2cc(CNc3ccc(N4CCC(O)CC4)c(C(=O)N4CCCC4)c3)nn2)c1)c1cc(F)cc(F)c1` has an IC50 of 51 nM.
